Assay results published in patent US20100298141A1, “SUBSTITUTED PYRIDINE N-OXIDE HERBICIDES” (E. I. DU PONT DE NEMOURS AND COMPANY, priority 2007, published 2010).

How the values were obtained:
pigweed = assay: Test C pre-/postemergence test; format: in vivo, Amaranthus retroflexus; details: for Plant response rating, Pigweed: scale 0 to 100, 0 no effect, 100 complete control
From the text: (§1) Seeds of plant species selected from blackgrass (Alopecurus myosuroides), downy brome (Bromus tectorum), green foxtail (Setaria viridis), Italian ryegrass (Lolium multiflorum), wheat (Triticum aestivum), wild oat (Avena fatua), catchweed bedstraw (Galium aparine), Russian thistle (Salsola kali), […] (Cynodon dactylon), Surinam grass (Brachiaria decumbens), cocklebur (Xanthium strumarium), corn (Zea mays), crabgrass (Digitaria sanguinalis), woolly cupgrass (Eriochloa villosa), giant foxtail (Setaria faberii), Goosegrass (Eleusin indica), johnsongrass (Sorghum halepense), kochia (Kochia scoparia), lambsquarters (Chenopodium album), morningglory (Ipomoea coccinea), eastern black nightshade (Solanum ptycanthum), yellow nutsedge (Cyperus esculentus), pigweed (Amaranthus retroflexus), common ragweed (Ambrosia elation), soybean (Glycine max), common (oilseed) sunflower (Helianthus annuus), and velvetleaf (Abutilon theophrasti) were planted and treated preemergence with test chemicals formulated in a non-phytotoxic solvent mixture which included a surfactant. At the same time, plants selected from these crop and weed species and also winter barley (Hordeum vulgare), canarygrass (Phalaris minor), and chickweed (Stellaria media) were treated with postemergence applications of some of the test chemicals formulated in the same manner. Plants ranged in height from 2 to 18 cm (1- to 4-leaf stage) for postemergence treatments. […] At time of treatment, test pots were flooded to 3 cm above the soil surface, treated by application of test compounds directly to the paddy water, and then maintained at that water depth for the duration of the test. […] A dash (-) response means no test result.

crabgrass = assay: Test C pre-/postemergence test; format: in vivo, Digitaria sanguinalis; details: for Plant response rating, Crabgrass, Large: scale 0 to 100, 0 no effect, 100 complete control
From the text: as §1

lambsquarters = assay: Test C pre-/postemergence test; format: in vivo, Chenopodium album; details: for Plant response rating, Lambsquarters: scale 0 to 100, 0 no effect, 100 complete control
From the text: as §1

corn = assay: Test A pre-/postemergence greenhouse test; format: in vivo, Zea mays; details: for Corn plant response rating: 0 to 100 scale
How it was run: (§2)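 Greenhouse herbicide screen, pre- and postemergence in parallel. Soil: loam plus sand. Formulation: non-phytotoxic solvent mix with surfactant. Postemergence stage: one to two leaves, 2–10 cm height. Evaluation: visual injury, compared with untreated controls, about 10 days after treatment.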

downy brome = assay: Test C pre-/postemergence test; format: in vivo, Bromus tectorum; details: Postemergence; for Plant response rating, Bromegrass, Downy: scale 0 to 100, 0 no effect, 100 complete control
From the text: as §1

wheat = assay: Test A pre-/postemergence greenhouse test; format: in vivo, Triticum aestivum; details: for Wheat plant response rating: 0 to 100 scale
How it was run: as §2

morningglory = assay: Test C pre-/postemergence test; format: in vivo, Ipomoea coccinea; details: for Plant response rating, Morningglory: scale 0 to 100, 0 no effect, 100 complete control
From the text: as §1

johnsongrass = assay: Test C pre-/postemergence test; format: in vivo, Sorghum halepense; details: for Plant response rating, Johnsongrass: scale 0 to 100, 0 no effect, 100 complete control
From the text: as §1

giant foxtail [1] = assay: Test A pre-/postemergence greenhouse test; format: in vivo, Setaria faberi; details: for Foxtail, Giant plant response rating: 0 to 100 scale
How it was run: as §2

bermudagrass = assay: Test C pre-/postemergence test; format: in vivo, Cynodon dactylon; details: for Plant response rating, Bermudagrass: scale 0 to 100, 0 no effect, 100 complete control
From the text: as §1

velvetleaf = assay: Test A pre-/postemergence greenhouse test; format: in vivo, Abutilon theophrasti; details: for Velvetleaf plant response rating: 0 to 100 scale
How it was run: as §2

giant foxtail [2] = assay: Test C pre-/postemergence test; format: in vivo, Setaria faberii; details: for Plant response rating, Foxtail, Giant: scale 0 to 100, 0 no effect, 100 complete control
From the text: as §1

soybean = assay: Test C pre-/postemergence test; format: in vivo, Glycine max; details: for Plant response rating, Soybean: scale 0 to 100, 0 no effect, 100 complete control
From the text: as §1

Surinam grass = assay: Test C pre-/postemergence test; format: in vivo, Brachiaria decumbens; details: for Surinam Grass plant response rating: preemergence, scale 0 (no effect) to 100 (complete control); for Plant response rating, Surinam Grass: scale 0 to 100, 0 no effect, 100 complete control
From the text: as §1

[3] = 62 g ai/ha, preemergence, scale 0 (no effect) to 100 (complete control)
[4] = 31 g ai/ha, Preemergence, scale 0 to 100
[5] = preemergence, 125 g ai/ha, scale 0 (no effect) to 100 (complete control)
[6] = Postemergence, 125 g ai/ha, 0 is no effect, 100 is complete control
[7] = Postemergence, 500 g ai/ha, 0 is no effect, 100 is complete control
[8] = Preemergence, 125 g ai/ha, 0 no effect, 100 complete control
[9] = Preemergence, 500 g ai/ha, 0 to 100 scale where 0 is no effect and 100 is complete control

Cn1nc(C(F)(F)F)c(C[S+]([O-])c2ccc(Cl)c[n+]2[O-])c1OC(F)F (stereo not drawn) [Compound 6]
Pigweed plant response rating (pigweed; [3]): 100
Plant response rating (0 to 100), Pigweed (pigweed; Postemergence, 31 g ai/ha): 0
Plant response rating (0 to 100), Pigweed (pigweed; Postemergence, 62 g ai/ha): 0
Plant response rating, Pigweed (pigweed; Postemergence, 125 g ai/ha): 0
Plant response rating, Pigweed (pigweed; Postemergence, 250 g ai/ha): 0
Plant response rating (0 to 100), Pigweed (pigweed; Preemergence, 250 g ai/ha): 100
Crabgrass, Large plant response rating (crabgrass; [4]): 98
Crabgrass, Large plant response rating (crabgrass; [3]): 100
Plant response rating (0 to 100), Crabgrass, Large (crabgrass; Postemergence, 31 g ai/ha): 5
Plant response rating, Crabgrass, Large (crabgrass; Postemergence, 62 g ai/ha): 10
Plant response rating, Crabgrass, Large (crabgrass; Postemergence, 125 g ai/ha): 40
Plant response rating, Crabgrass, Large (crabgrass; Postemergence, 250 g ai/ha): 45
Plant response rating (0 to 100), Crabgrass, Large (crabgrass; Preemergence, 250 g ai/ha): 100
Crabgrass, Large plant response rating (crabgrass; [5]): 100
Lambsquarters plant response rating (lambsquarters; [3]): 0
Plant response rating (0 to 100), Lambsquarters (lambsquarters; Postemergence, 31 g ai/ha): 0
Plant response rating, Lambsquarters (lambsquarters; Postemergence, 62 g ai/ha): 10
Plant response rating, Lambsquarters (lambsquarters; Postemergence, 125 g ai/ha): 10
Plant response rating, Lambsquarters (lambsquarters; Postemergence, 250 g ai/ha): 10
Plant response rating (0 to 100), Lambsquarters (lambsquarters; Preemergence, 250 g ai/ha): 100
Corn plant response rating (corn; [6]): 60
Corn plant response rating (corn; [7]): 80
Corn plant response rating (corn; [8]): 80
Plant response rating, Corn (corn; [9]): 90
Plant response rating (0 to 100), Bromegrass, Downy (downy brome; 31 g ai/ha): 0
Plant response rating, Bromegrass, Downy (downy brome; 62 g ai/ha): 30
Plant response rating, Bromegrass, Downy (downy brome; 125 g ai/ha): 50
Plant response rating, Bromegrass, Downy (downy brome; 250 g ai/ha): 80
Wheat plant response rating (wheat; [6]): 30
Wheat plant response rating (wheat; [7]): 70
Wheat plant response rating (wheat; [8]): 90
Plant response rating, Wheat (wheat; [9]): 90
Morningglory plant response rating (morningglory; [4]): 0
Morningglory plant response rating (morningglory; [3]): 0
Plant response rating (0 to 100), Morningglory (morningglory; Postemergence, 31 g ai/ha): 10
Plant response rating, Morningglory (morningglory; Postemergence, 62 g ai/ha): 50
Plant response rating, Morningglory (morningglory; Postemergence, 125 g ai/ha): 50
Plant response rating, Morningglory (morningglory; Postemergence, 250 g ai/ha): 50
Plant response rating (0 to 100), Morningglory (morningglory; Preemergence, 250 g ai/ha): 70
Morningglory plant response rating (morningglory; [5]): 10
Johnsongrass plant response rating (johnsongrass; [4]): 65
Johnsongrass plant response rating (johnsongrass; [3]): 98
Plant response rating (0 to 100), Johnsongrass (johnsongrass; Postemergence, 31 g ai/ha): 0
Plant response rating, Johnsongrass (johnsongrass; Postemergence, 62 g ai/ha): 0
Plant response rating, Johnsongrass (johnsongrass; Postemergence, 125 g ai/ha): 30
Plant response rating, Johnsongrass (johnsongrass; Postemergence, 250 g ai/ha): 35
Plant response rating (0 to 100), Johnsongrass (johnsongrass; Preemergence, 250 g ai/ha): 100
Johnsongrass plant response rating (johnsongrass; [5]): 98
Foxtail, Giant plant response rating (giant foxtail [1]; [6]): 70
Foxtail, Giant plant response rating (giant foxtail [1]; [7]): 90
Foxtail, Giant plant response rating (giant foxtail [1]; [8]): 100
Plant response rating, Foxtail, Giant (giant foxtail [1]; [9]): 100
Bermudagrass plant response rating (bermudagrass; [4]): 98
Bermudagrass plant response rating (bermudagrass; [3]): 98
Plant response rating (0 to 100), Bermudagrass (bermudagrass; Postemergence, 31 g ai/ha): 0
Plant response rating, Bermudagrass (bermudagrass; Postemergence, 62 g ai/ha): 10
Plant response rating, Bermudagrass (bermudagrass; Postemergence, 125 g ai/ha): 50
Plant response rating, Bermudagrass (bermudagrass; Postemergence, 250 g ai/ha): 80
Plant response rating (0 to 100), Bermudagrass (bermudagrass; Preemergence, 250 g ai/ha): 100
Bermudagrass plant response rating (bermudagrass; [5]): 100
Velvetleaf plant response rating (velvetleaf; [6]): 50
Velvetleaf plant response rating (velvetleaf; [7]): 80
Velvetleaf plant response rating (velvetleaf; [8]): 90
Plant response rating, Velvetleaf (velvetleaf; [9]): 100
Foxtail, Giant plant response rating (giant foxtail [2]; [4]): 50
Foxtail, Giant plant response rating (giant foxtail [2]; [3]): 95
Plant response rating (0 to 100), Foxtail, Giant (giant foxtail [2]; Postemergence, 31 g ai/ha): 0
Plant response rating, Foxtail, Giant (giant foxtail [2]; Postemergence, 62 g ai/ha): 30
Plant response rating, Foxtail, Giant (giant foxtail [2]; Postemergence, 125 g ai/ha): 60
Plant response rating, Foxtail, Giant (giant foxtail [2]; Postemergence, 250 g ai/ha): 70
Plant response rating (0 to 100), Foxtail, Giant (giant foxtail [2]; Preemergence, 250 g ai/ha): 100
Foxtail, Giant plant response rating (giant foxtail [2]; [5]): 98
Soybean plant response rating (soybean; [4]): 0
Soybean plant response rating (soybean; [3]): 0
Plant response rating (0 to 100), Soybean (soybean; Postemergence, 31 g ai/ha): 5
Plant response rating (0 to 100), Soybean (soybean; Postemergence, 62 g ai/ha): 60
Plant response rating, Soybean (soybean; Postemergence, 125 g ai/ha): 70
Plant response rating, Soybean (soybean; Postemergence, 250 g ai/ha): 90
Plant response rating (0 to 100), Soybean (soybean; Preemergence, 250 g ai/ha): 50
Soybean plant response rating (soybean; [5]): 0
Surinam Grass plant response rating (Surinam grass; 62 g ai/ha): 98
Plant response rating (0 to 100), Surinam Grass (Surinam grass; Postemergence, 31 g ai/ha): 0
Plant response rating (0 to 100), Surinam Grass (Surinam grass; Postemergence, 62 g ai/ha): 0
Plant response rating, Surinam Grass (Surinam grass; Postemergence, 125 g ai/ha): 30
Plant response rating, Surinam Grass (Surinam grass; Postemergence, 250 g ai/ha): 30
Plant response rating (0 to 100), Surinam Grass (Surinam grass; Preemergence, 250 g ai/ha): 100
Surinam Grass plant response rating (Surinam grass; 125 g ai/ha): 100
